These results are taken from US7273880B2, “Selective NPY (Y5) antagonists” (H. Lunbeck A/S, priority 1999, dated 2007).

As a reminder, the Kb is the equilibrium dissociation constant of an antagonist, usually derived from a functional assay. Low values mean a more potent antagonist, high ones a less potent antagonist. A word on the Ki: it is a measure of affinity in units of concentration, obtained from inhibition or displacement. As a reminder, the melting point is the temperature of the solid-liquid transition.

The target in data set [1] is T1, human Y5 receptor (h NPY-5) (Homo sapiens, UniProt Q15761).
T1 construct: expressed in transfected cells; host or cells: mouse fibroblast LM(tk-) cells, e.g. L-hY5-7 (ATCC CRL-11995)
T1 sequence (Q15761 1-445): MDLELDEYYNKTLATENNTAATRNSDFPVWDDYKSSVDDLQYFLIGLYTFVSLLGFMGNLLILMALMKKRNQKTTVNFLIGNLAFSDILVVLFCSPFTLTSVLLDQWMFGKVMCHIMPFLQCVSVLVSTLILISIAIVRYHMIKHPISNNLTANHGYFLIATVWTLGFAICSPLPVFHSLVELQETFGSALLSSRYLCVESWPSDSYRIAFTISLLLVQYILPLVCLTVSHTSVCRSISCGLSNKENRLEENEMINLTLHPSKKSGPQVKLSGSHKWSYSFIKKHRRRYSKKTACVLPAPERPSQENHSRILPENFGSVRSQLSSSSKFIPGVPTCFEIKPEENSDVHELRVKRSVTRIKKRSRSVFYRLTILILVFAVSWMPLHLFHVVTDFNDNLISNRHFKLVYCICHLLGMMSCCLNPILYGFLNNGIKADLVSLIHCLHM
The data set is described as follows: Functional assay: radioimmunoassay of cAMP. It is filed as cell-based. The note with it: functional antagonism, forskolin-stimulated cAMP, cells stably transfected with human Y5. The method, then: LM(tk-) cells stably transfected with the human Y5 receptor were routinely converted from an adherent monolayer to a viable suspension. Adherent cells were harvested with trypsin at the point of confluence, resuspended in a minimal volume of complete DMEM for a cell count, and further diluted to a concentration of 10^6 cells/ml in suspension media (10% bovine calf serum, 10% 10× Medium 199 (Gibco), 9 mM NaHCO3, 25 mM glucose, 2 mM L-glutamine, 100 units/ml penicillin/100 μg/ml streptomycin, and 0.05% methyl cellulose). The cell suspension was maintained in a shaking incubator at 37° C., 5% CO2 for 24 hours. Membranes harvested from cells grown in this manner may be stored as large, uniform batches in liquid nitrogen. Alternatively, cells may be returned to adherent cell culture in complete DMEM by distribution into 96-well microtiter plates coated with poly-D-lysine (0.01 mg/ml) followed by incubation at 37° C., 5% CO2 for 24 hours. Cells prepared in this manner yielded a robust and reliable NPY-dependent response in cAMP radio-immunoassays as further described hereinbelow.
Stably transfected cells were seeded into 96-well microtiter plates and cultured until confluent. To reduce the potential for receptor desensitization, the serum component of the media was reduced to 1.5% for 4 to 16 hours before the assay. Cells were washed in Hank's buffered saline, or HBS (150 mM NaCl, 20 mM HEPES, 1 mM CaCl2, 5 mM KCl, 1 mM MgCl2, and 10 mM glucose) supplemented with 0.1% bovine serum albumin plus 5 mM theophylline and pre-equilibrated in the same solution for 20 min at 37° C. in 5% CO2. Cells were then incubated 5 min with 10 μM forskolin and various concentrations of receptor-selective ligands. The assay was terminated by the removal of HBS and acidification of the cells with 100 mM HCl. Intracellular cAMP was extracted and quantified with a modified version of a magnetic bead-based radioimmunoassay (Advanced Magnetics, Cambridge, Mass.). The final antigen/antibody complex was separated from free ^125I-cAMP by vacuum filtration through a PVDF filter in a microtiter plate (Millipore, Bedford, Mass.). Filters were punched and counted for ^125I in a Packard gamma counter. Binding data were analyzed using nonlinear regression and statistical techniques available in the GraphPAD Prism package (San Diego, Calif.).

The target of data set [2] is hNPY-1,2,4 (human Y1, Y2, Y4 receptors). The data set is described as follows: Radioligand binding to membranes, cloned human Y1, Y2 and Y4 receptors. The settings on record: one bound given for all three. A digest of the protocol:
(§1)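 Competition binding on membranes from stably transfected 293 or LM(tk-) cells, with 0.08 nM ¹²⁵I-PYY in pH 7.4 HEPES buffer plus 0.1% BSA, 120 min at 30 °C, filtration and counting. Nonspecific binding defined by 300 nM human NPY, or 100 nM human PP for Y4; nonlinear regression.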

The target in data set [3] is T2, human Y5 receptor (hNPY-5) (Homo sapiens, UniProt Q15761).
T2 construct: expressed in transfected cells; host or cells: mouse fibroblast LM(tk-) cells, e.g. L-hY5-7 (ATCC CRL-11995)
T2 sequence (Q15761 1-445): T1 sequence (Q15761 1-445)
Put plainly: Radioligand binding to membranes, cloned human Y5 receptor. Summed up: as §1

The subject of another data set is satiated rats. The settings on record: direct injection into the hypothalamus, 4-hour period; cited from earlier work.
The mark [4] stands for this setting: binding Ki as repeated in Table 4, read-out: Ki (h NPY-5).
The mark [5] stands for this setting: cloned human NPY Y5 receptor, radioligand competition binding, Tables 1-3, read-out: Ki, nM hNPY-5.

Like-named read-outs stand apart in the source and are kept apart here.

As to `O=S(=O)(CC(F)(F)F)NCCCCCNc1nc2c(s1)CCCc1ccc(F)cc1-2` [Example 20, 1-Aza-9-fluoro-2-(5-(2-trifluoroethyl)sulfonylamino)-pentylamino-4,5-dihydro-3-thia-benzo [e]azulene], the antagonist equilibrium constant (Kb) in data set [1] is 5.01 nM. Also, the inhibition constant (Ki) in data set [2] is greater than 10000 nM; in data set [3] (setting [4]) it was 0.3 nM; in data set [3] (setting [5]), 5.8 nM.

`O=S(=O)(NCCCCCNc1nc2c(s1)CCCc1ccc(F)cc1-2)c1ccccc1F` [Example 3, 1-Aza-9-fluoro-2-(5-(2-fluorophenyl)sulfonylamino)-pentylamino-4,5-dihydro-3-thia-benzo[e]azulene] showed a Kb in data set [1] of 3.16 nM. In addition, the inhibition constant (Ki) in data set [2] was greater than 10000 nM; in data set [3] (setting [4]), 4.5 nM; in data set [3] (setting [5]), 4.5 nM.

In data set [1], `CS(=O)(=O)NC[C@H]1CC[C@H](Nc2nc3c(s2)CCCc2ccc(F)cc2-3)CC1` [Example 11, trans-1-Aza-9-fluoro-4,5-dihydro-2-(4-(methyl-sulfonylamino-methyl)cyclohexyl)amino-3-thia-benzo[e]azulene] had a Kb of 3.16 nM. Moreover, the Ki in data set [2] is greater than 10000 nM; in data set [3] (setting [4]), 6.4 nM; in data set [3] (setting [5]), 6.4 nM.

Regarding `NS(=O)(=O)N[C@H]1CC[C@H](CNc2nc3c(s2)CCCc2ccc(F)cc2-3)CC1` [Example 44, trans-N2-(4-Aminosulfonylamino)cyclohexylmethyl-9-fluoro-5,6-dihydro-4H-benzo[6,7]cyclohepta[d][1,3]-thiazol-2-amine], the melting point was in the range of 180 to 182 °C. Moreover, the antagonist equilibrium constant (Kb) in data set [1] is 1.58 nM. Moreover, the inhibitory constant (Ki) in data set [2] is greater than 10000 nM. For the same molecule, in data set [3] (setting [4]), the Ki worked out at 2.3 nM. For the same molecule, the Ki in data set [3] (setting [5]) amounted to 2.3 nM.

Molecule `CS(=O)(=O)N[C@H]1CC[C@H](Nc2nc3c(s2)CCCc2ccc(F)cc2-3)CC1` [Example 34, trans-1-Aza-9-fluoro-4,5-dihydro-2-(4-methyl-sulfonylamino)-cyclohexylamino-3-thia-benzo[e]azulene] yielded a melting point of 179 to 181 °C. For the same molecule, in data set [1], the Kb was 63.1 nM. Also, in data set [3] (setting [4]), the inhibition constant (Ki) was found to be 33.5 nM. For the same molecule, the Ki in data set [3] (setting [5]) was 34 nM.

For the molecule `O=S(=O)(NCCCCCNc1nc2c(s1)CCCc1ccc(F)cc1-2)c1cccc2ccccc12` [Example 4, 1-Aza-9-fluoro-4,5-dihydro-2-(5-(1-naphthyl)sulfonyl-amino)-pentylamino-3-thia-benzo[e]azulene], the antagonist dissociation constant (Kb) in data set [1] is 2.51 nM. The inhibition constant Ki in data set [2] was greater than 10000 nM; in data set [3] (setting [4]), 19.5 nM; in data set [3] (setting [5]), 19.5 nM.

`CN(C)S(=O)(=O)NC[C@H]1CC[C@H](Nc2nc3c(s2)CCCc2ccc(F)cc2-3)CC1` [Example 1, trans-N2-(4-Dimethylaminosulfonylaminomethyl)-cyclohexyl-9-fluoro-5,6-dihydro-4H-benzo[6,7]-cyclohepta[d][1,3]-thiazol-2-amine] came in with a melting point of 60 to 65 °C. Besides, the Kb in data set [1] is 12.6 nM. Besides, in data set [2], the inhibition constant Ki was greater than 10000 nM. Moreover, the Ki in data set [3] (setting [4]) is 2.1 nM. Further, the inhibition constant (Ki) in data set [3] (setting [5]) came out at 2.1 nM.

Consider “NPY: peptide neurotransmitter neuropeptide Y, a 36 amino acid member of the pancreatic polypeptide family”, for which the “increase of food intake” value with satiated rats is on record as “up to 10 fold”.

The molecule `CS(=O)(=O)N[C@H]1CC[C@H](CNc2nc3c(s2)CCCc2ccc(F)cc2-3)CC1` [Example 43, trans-N2-(4-Methylsulfonylamino)cyclohexylmethyl-9-fluoro-5,6-dihydro-4H-benzo[6,7]cyclohepta[d][1,3]-thiazol-2-amine] gave a Kb in data set [1] of 15.8 nM. For the same molecule, the Ki was greater than 10000 nM in data set [2], 4.4 nM in data set [3] (setting [4]) and 4.4 nM in data set [3] (setting [5]).

With `COCC(=O)NC[C@H]1CC[C@H](Nc2nc3c(s2)CCCc2ccc(F)cc2-3)CC1` [Example 80, N1-({4-[(9-fluoro-5,6-dihydro-4H-benzo[6,7]-cyclohepta-[d][1,3]thiazol-2-yl)amino]cyclohexyl}-methyl)-2-methoxyacetamide], the Kb in data set [1] is 39.8 nM. The Ki worked out at 32.9 nM in data set [3] (setting [4]) and 33 nM in data set [3] (setting [5]).

Regarding `CS(=O)(=O)N[C@H]1CC[C@H](CNc2nc3c(s2)CCOc2ccccc2-3)CC1` [Example 50, trans-N2-(4-Methylsulfonylamino)cyclohexylmethyl-4,5-dihydro-benzo[2,3]oxepino[4,5-d][1,3]thiazol-2-amine], the melting point is 64 to 67 °C. In data set [1], the antagonist dissociation constant (Kb) is 7.94 nM. Besides, the inhibition constant (Ki) in data set [3] (setting [4]) turned out to be 15.3 nM. The inhibition constant Ki in data set [3] (setting [5]) was 15.3 nM.
